Assays:
[1] = system: NRAS mutant SKNAS neuroblastoma cells; experiment: Cell death by Annexin V/PI flow cytometry; type: cell-based; details: 1 μM 6-thio-dG, 5 μM Gam, single agents or in combination
Procedure: (§1) FIGS. 5a to 5e provide bar graphs showing that combination treatment with 6-Thio-dG and Gamitrinib (Gam) triggers death selectively in NRAS mutant tumor cells. NRAS-WT/BRAF-WT melanoma cells (FIG. 5a), NRAS-WT/BRAF-mut melanoma cells (FIG. 5b), NRAS mutant neuroblastoma cells (FIG. 5c), NRAS-WT/KRAS-mutant colon cancer cells (FIG. 5d), and NRAS-WT/KRAS-mutant lung cancer cells were treated with 1 μM 6-thio-dG for 5 days (FIG. 5e). At day 5, culture medium was replaced and cells treated with 1 μM 6-thio-dG plus 5 μM Gam for two more days. Cells were stained with Annexin V and PI and percent cell death was determined by FACS. Data represent average of three independent experiments +/−SEM; p values were calculated using un-paired Student's t-test; *p<0.05; **p<0.001.
(§2) Cells were seeded in 96-well plates and treated with drugs. After 6 days, cell viability was assessed following 6h incubation with […] Alamar Blue (ThermoFisherScientific, Philadelphia, Pa.) by measuring fluorescence using an EnVision Xcite Multilabel plate reader (Perkin Elmer, Waltham, Mass.). Cell death was determined by flow cytometry using PSVue-643 (Molecular Targeting Technologies) or Annexin V (640919, Biolegend, San Diego, Calif.) and Propidium Iodide (Sigma) staining. Samples were analyzed using a BD LSRII flow cytometer (BD Biosciences, San Jose, Calif.).

KRAS mutant HCT116 cells = experiment: Cell death by Annexin V/PI flow cytometry; type: cell-based; details: 1 μM 6-thio-dG, 5 μM Gam
Procedure: as §1, §2

KRAS mutant A549 cells = experiment: Cell death by Annexin V/PI flow cytometry; type: cell-based; details: 1 μM 6-thio-dG, 5 μM Gam
Procedure: as §1, §2

[2] = system: NRAS mutant melanoma cells; experiment: Cell viability, Alamar Blue assay; type: cell-based, Human
Procedure: (§3) FIGS. 2a to 2c show NRAS^mut melanoma cells (FIG. 2a), BRAF-V600E/NRAS mutant cells derived from melanoma patients resistant to BRAF/MEK inhibitors (FIG. 2b), or non-transformed melanocytes and fibroblasts (FIG. 2c) were treated with 6-thio-dG for 7 days. Cell viability was measured by Alamar Blue assay and calculated relative to DMSO-treated cells. […] Cell death was assessed by PSVUe staining. Percent of apoptotic cells is shown. […] Mean TRF length expressed as kilobase pairs is indicated at the bottom. […] FIG. 2g provides a bar graph showing that DNA damage was assessed by γH2AX staining. Data represent average from three independent experiments ±SEM. *p<0.05; **p<0.01; ***p<0.005 in unpaired Student's t-test. […] Tumor volume was measured and average tumor volume (n=4) ±SEM was plotted vs. time.
as §2

[3] = mice; cited from earlier work
[4] = system: non-transformed primary human melanocytes; experiment: Cell viability, Alamar Blue assay; type: cell-based; details: telomerase negative cells, 7 days
Procedure: as §3, §2

[5] = system: non-transformed primary human fibroblasts; experiment: Cell viability, Alamar Blue assay; type: cell-based; details: telomerase negative cells, 7 days
Procedure: as §3, §2

[6] = system: NRAS mutant melanoma cells; experiment: Reactive oxygen species by flow cytometry (H2DCFDA, MitoSox Red); type: cell-based, Human; details: 1 μM 6-thio-dG for 7 days
Procedure: as §3, with “staining.” for “staining. Data represent average from three independent experiments ±SEM. *p<0.05; **p<0.01; ***p<0.005 in unpaired Student's t-test.”
FIGS. 3a to 3g provides graphs showing that telomere dysfunction enhances oxidative stress leading to upregulation of an antioxidant program. […] Mitochondrial superoxide production was measured by MitoSox Red fluorescence (FIGS. 3c, and 3d) and expressed as fluorescence relative to vector or DMSO controls. […] Transduced M93-047 cells were treated with DMSO or 1 μM of 6-thio-dG and cell death was assessed by Annexin V/PI straining. […] Transduced cells were treated with increasing doses (1, 2.5 and 5 μM) of 6-thio-dG for 7 days and cell death was assessed. […]
General or mitochondrial specific ROS were measured by flow cytometry H2DCFDA or MitoSoxRed (Invitrogen, Waltham, Mass.) following manufacturer's specifications.

[7] = system: NRAS mutant melanoma cells; experiment: Cell death by flow cytometry (PSVue or Annexin V/PI); type: cell-based, Human
Procedure: FIGS. 2a to 2c show NRAS^mut melanoma cells (FIG. 2a), BRAF-V600E/NRAS mutant cells derived from melanoma patients resistant to BRAF/MEK inhibitors (FIG. 2b), or non-transformed melanocytes and fibroblasts (FIG. 2c) were treated with 6-thio-dG for 7 days. Cell viability was measured by Alamar Blue assay and calculated relative to DMSO-treated cells. […] Cell death was assessed by PSVUe staining. Percent of apoptotic cells is shown. […] Mean TRF length expressed as kilobase pairs is indicated at the bottom. […] FIG. 2g provides a bar graph showing that DNA damage was assessed by γH2AX staining. Data represent average from three independent experiments ±SEM. *p<0.05; **p<0.01; ***p<0.005 in unpaired Student's t-test. As presented in FIG. 2h, mice bearing established WM3000 or M93-047 NRAS^mut tumors were treated with vehicle control or 6-thio-dG (2.5 mg/kg i.p; q.d). Tumor volume was measured and average tumor volume (n=4) ±SEM was plotted vs. time.
FIGS. 3a to 3g provides graphs showing that telomere dysfunction enhances oxidative stress leading to upregulation of an antioxidant program. […] Mitochondrial superoxide production was measured by MitoSox Red fluorescence (FIGS. 3c, and 3d) and expressed as fluorescence relative to vector or DMSO controls. […] FIG. 3f provides a bar graph showing that SOD2 was silenced using shRNA. Transduced M93-047 cells were treated with DMSO or 1 μM of 6-thio-dG and cell death was assessed by Annexin V/PI straining. As presented in FIG. 3g, M93-047 cells were transduced with a SOD2 lentiviral construct or empty vector control (pLX304). Transduced cells were treated with increasing doses (1, 2.5 and 5 μM) of 6-thio-dG for 7 days and cell death was assessed. Data represent average from three independent experiments ±SEM. *p<0.05; **p<0.01; ***p<0.005 in unpaired Student's t-test.
FIGS. 4a to 4e provides bar graphs showing that induction of telomere and mitochondrial dysfunction triggers cell death in NRAS mutant melanoma. […] Cell death was assessed by Annexin V and PI staining. […] Cells were stained with Annexin V and PI and percent cell death was determined by flow cytometry. […] P values were calculated using unpaired Student's t-test; * p<0.05; *** p<0.005.
As presented in FIG. 16a, SOD2 was silenced using shRNA. Transduced WM3000 cells were treated with DMSO or 1 μM of 6-thio-dG and cell death was assessed by Annexin V/PI straining. […] Transduced cells were treated with increasing doses (1, 2.5 and 5 μM) of 6-thio-dG for 10 days and cell death was assessed. […]
In FIG. 17a, NRAS^mut melanoma cells were treated with 6-thio-dG (1 μM) for 7 days total. […] Percent cell death was determined by flow cytometry following staining of cells with Annexin V and Propidium iodide. […]

Nc1nc2c(ncn2[C@H]2C[C@H](O)[C@@H](CO)O2)c(=S)[nH]1 [6-thio-dG, 6-thio-2′-deoxyguanosine]
cell death [1]: triggered significant death
cell death (KRAS mutant HCT116 cells): did not induce substantial death
cell death (KRAS mutant A549 cells): did not induce substantial death
cell viability ([2]; 6-thio-dG for 7 days, relative to DMSO): impaired the viability
cell viability ([2]; cells driven by secondary mutations in NRAS from patients with acquired resistance to BRAF and MEK inhibitors, 7 days): impaired the viability
effect on alanine aminotransferase (ALT) [3]: no significant effects
effect on aspartate aminotransferase (AST) [3]: no significant effects
effect on creatinine levels [3]: no significant effects
effect on red blood cells [3]: no significant effects
effect on white blood cells [3]: no significant effects
cell viability [4]: did not significantly affect
cell viability [5]: did not significantly affect
ROS levels (H2DCFDA) [6]: increased levels
mitochondrial ROS levels (MitoSox Red) [6]: increased mitochondrial ROS levels
cell death (PSVue staining) ([7]; 1 or 5 μM 6-thio-dG for 7 or 14 days): led to cell death after 7-14 days
apoptosis / cell death ([7]; SOD2 overexpression, 1, 2.5 and 5 μM 6-thio-dG for 7 or 10 days, M93-047, WM3000): attenuated the apoptosis-inducing effects
apoptosis / cell death (Annexin V/PI) ([7]; SOD2 silenced by shRNA, 1 μM 6-thio-dG, M93-047, WM3000): enhanced the ability of 6-Thio-dG to induce apoptosis
